The source of these data is PubChem BioAssay (NCI).

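Cells were grown in 96-well plates and exposed to each compound for 48 hours at five concentrations; endpoints were interpolated linearly between bracketing concentrations, or set to the highest concentration if not reached. Definition used: TGI = concentration required for complete inhibition of growth.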

Common to all, as to assay: inhibition of tumour cell growth, NCI panel, 48 h
Experiment [1] has as its system A498 renal.
In experiment [2] the test system is T-47D breast.
In experiment [3] the test system is HS 578T breast.
In experiment [4] the test system is HCC-2998 colon.
The subject of experiment [5] is NCI/ADR-RES ovarian.
The subject of experiment [6] is MALME-3M melanoma.
For experiment [7], the system named is OVCAR-5 ovarian.
The subject of experiment [8] is MDA-N.
The subject of experiment [9] is SF-539 CNS.
In experiment [10] the test system is DU-145 prostate.
The test system of experiment [11] is K-562 leukemia.
The subject of experiment [12] is PC-3 prostate.
Experiment [13] concerns MDA-MB-435.
In experiment [14] the test system is M14 melanoma.
In experiment [15] the test system is MCF7 breast.
Experiment [16] deals with MDA-MB-231 breast.
The subject of experiment [17] is UACC-257 melanoma.
In experiment [18] the test system is DLD-1 colon.
The subject of experiment [19] is KM20L2 colon.
Experiment [20] concerns BT-549 breast.

As for `C/C(=N\NC(=S)NCc1ccccc1)c1nc2ncccc2[nH]1`, the TGI in experiment [1] was 50 µM; in experiment [2] it was 43.3 µM; in experiment [3], over 100 µM; in [4], 68.4 µM; in experiment [5], 78.8 µM; in experiment [6], 34.6 µM. In addition, the TGI came to 30.2 µM in [7]; 26.8 µM in [8]; 20.8 µM in experiment [9]; 24.5 µM in experiment [10]; 41.5 µM in experiment [11]; 50.2 µM in experiment [12]. Also, the TGI in experiment [13] is 33.5 µM; in [14], 19.8 µM; in [15] it was 16.2 µM; in experiment [16], 90.2 µM; in experiment [17], 22.1 µM.

On to `O=C(CCN1CCOCC1)C(=Cc1ccccc1)C(=O)CCN1CCOCC1`, for which the TGI in experiment [18] came out at 3.84 µM; in experiment [1] it was 31.4 µM; in experiment [19], 25 µM; in [4], 26.9 µM; in [5], 13.9 µM; in experiment [6], 4.64 µM. Moreover, the TGI in experiment [7] was determined as 33.6 µM; in experiment [9], 10 µM; in experiment [11], 2.15 µM; in experiment [15] it was 13.4 µM; in experiment [17], 3.5 µM.

On to `NCc1cc(O)c(O)c(O)c1`, for which the TGI in experiment [18], in [1], in [19], in experiment [6], in [7] and in experiment [11] was over 100 µM throughout. Moreover, the TGI in experiment [14] and in [17] was over 100 µM each time.

For the compound `O=C(N/N=C\C(F)(F)F)c1ccncc1`, the TGI in [1], in experiment [3], in experiment [4], in experiment [5], in experiment [6] and in experiment [7] was over 100 µM in each case. In addition, the TGI in experiment [10], in experiment [11], in experiment [12], in experiment [13], in experiment [14] and in [20] was over 100 µM throughout. The TGI in [15] and in experiment [17] was over 100 µM in each case.

As for `COC(=O)C1=C(C)N2CCOC2CC1c1ccccc1` (configuration not stated), the TGI in experiment [18], in [19], in experiment [4], in experiment [9], in experiment [11] and in [14] was over 100 µM throughout. Also, the TGI in experiment [17] was over 100 µM.

In the case of `Cc1ccc(S(=O)(=O)NNC2Oc3cc4c(cc3C(c3ccccc3O)C2C)OCO4)cc1` (configuration not stated), the TGI in [1] was determined as 30.7 µM; in experiment [2], 25.6 µM; in [3] it was 29.5 µM; in experiment [4], 32.6 µM; in experiment [6], 25.9 µM; in experiment [7], 30.5 µM. Besides, the TGI was found to be 27 µM in [8]; 33.3 µM in experiment [9]; 29.2 µM in [10]; 50.2 µM in experiment [11]; 22.8 µM in experiment [12]; 26.8 µM in [13]. For the same compound, the TGI in [14] was determined as 26.2 µM; in experiment [20], 27.3 µM; in experiment [15], 35.2 µM; in experiment [16], 31.4 µM; in experiment [17] it was 23.3 µM.

As to `Cc1ccc(S(=O)(=O)NCCCSCCSCCCN)cc1`, the TGI in [1], in experiment [2], in experiment [3], in experiment [4], in experiment [5] and in experiment [8] was over 100 µM in each case. In addition, the TGI in [10], in experiment [11], in experiment [12], in [13], in experiment [14] and in experiment [15] was over 100 µM throughout. Besides, the TGI in [16] and in experiment [17] was over 100 µM each time.

In the case of `CCN(CC)CCN(C(=O)c1ccc(F)cc1)c1ccccc1N`, the TGI in experiment [1], in experiment [2], in [3], in experiment [4], in [5] and in [6] was over 10 µM throughout. Further, the TGI in [7], in experiment [8], in experiment [9], in experiment [10], in experiment [11] and in experiment [12] was over 10 µM each time. In addition, the TGI in [13], in experiment [14], in [15] and in [16] was over 10 µM each time.

Take `CNCCC=C1c2ccccc2CCc2ccccc21`: the TGI in experiment [1] was 28.9 µM; in experiment [2], 23.5 µM; in experiment [3], 51.1 µM; in experiment [5] it was 30.4 µM; in experiment [6], 30.3 µM; in experiment [7], 30.2 µM. For the same compound, the TGI stood at 29 µM in [8]; 44.1 µM in experiment [9]; 28.8 µM in experiment [10]; 30.5 µM in [11]; 27.4 µM in experiment [12]; 28.2 µM in [13]. The TGI in experiment [14] was 14.7 µM; in [20], 29.1 µM; in experiment [15] it was 30.4 µM; in [16], over 51.9 µM; in experiment [17] it was 19.9 µM.

For the compound `COc1cc2oc(=O)ccc2cc1CC=C(C)C`, the TGI in experiment [1] was over 100 µM; in experiment [2], over 100 µM; in experiment [3] it was over 100 µM; in [4], over 100 µM; in experiment [5], 79.3 µM; in experiment [6], over 100 µM. In addition, the TGI in [7], in [8], in [9], in experiment [10], in [11] and in [12] was over 100 µM each time. Besides, the TGI in experiment [13] is over 100 µM; in [20] it was 81 µM; in [15], over 100 µM; in experiment [16], over 100 µM; in [17] it was over 100 µM.

With `CN(C)CCN(C(=Nc1ccccc1)N1CCCC1)c1ccccc1`, the TGI in experiment [2] was over 100 µM; in [3] it was over 100 µM; in [5], over 100 µM; in [6], over 100 µM; in experiment [7], over 100 µM; in experiment [8], 86.6 µM. Further, the TGI in [10], in experiment [11], in experiment [12], in experiment [13], in [14] and in experiment [20] was over 100 µM in each case. For the same compound, the TGI in experiment [15] and in experiment [17] was over 100 µM each time.

`CN1C(=O)C2C=C3CCCCC3=CC2N(C)C1=O` (configuration not stated): the TGI in experiment [1], in [2], in experiment [3], in [4], in experiment [5] and in [6] was over 100 µM throughout. The TGI in experiment [7], in experiment [8], in [9], in experiment [10], in experiment [11] and in experiment [12] was over 100 µM throughout. For the same compound, the TGI in [13], in experiment [14], in [20], in experiment [15], in [16] and in experiment [17] was over 100 µM each time.

`COc1cc(C(=O)Nc2cc(C(N)=O)cc(OC)c2OC)cc(NC(=O)/C=C/c2ccccc2)c1OC`: the TGI is over 100 µM in experiment [5]; 64 µM in experiment [6]; over 100 µM in [7]; over 100 µM in experiment [8]; over 100 µM in [9]; over 100 µM in experiment [10]. In addition, the TGI is over 100 µM in experiment [11]; over 100 µM in experiment [12]; over 100 µM in experiment [13]; over 100 µM in [20]; over 100 µM in experiment [15]; 57.5 µM in experiment [16]. The compound further showed a TGI in experiment [17] of over 100 µM.

With `CC(=O)NNc1nc(C)c(C(=O)NNC(=O)C(=O)Nc2c(C)cccc2C(C)(C)C)s1`, the TGI in [18], in [1], in [19], in experiment [4], in [7] and in [9] was over 100 µM each time. Besides, the TGI in experiment [11], in experiment [14] and in experiment [17] was over 100 µM each time.
